Values of other authors, collected in US10945968B2, “Memantine transdermal delivery systems” (Corium, Inc., priority 2016, dated 2021).

Settings: DRUGBANK Accession No. DB01043

C[C@]12CC3C[C@](C)(C1)C[C@@](N)(C3)C2 [Memantine, 3,5-dimethyladamantan-1-amine]
Log P reported range: 3.31-2.07
